Laboratory results from patent publication US4296112A, “Cephalosporins” (Mitsui Toatsu Chemicals, Inc., priority 1979, dated 1981).
Where two headings read alike, the source gives them in different places.

Assays:
[1] = system: Pseudomonas aeruginosa (NCTC 7244); experiment: MIC in HIB medium by turbidity (Referential Example 2, Table 2); format: cell-based; conditions: NCTC7244, 18 h, 37° C.
Procedure: (§1) The compounds obtained in Synthesis Examples 1 to 4 were tested in the following manner.
(§2) A suspension of Pseudomonas aeruginosa (NCTC 7244) cultivated at 37° C. for 18 hours in a heart infusion broth medium (HIB medium) in a final amount of 10^5, 10^6 and 10^7 cells/ml in an HIB medium containing each of the test compounds which was obtained in the same way as in Referential Example 1 except that the maximum concentration of the test compound was 200 μg/ml. The bacterial strain was cultivated at 37° C. for 18 hours, and the turbidity of the culture broth was evaluated with the naked eye. The minimum concentration of the test compound at which no turbidity was noted was defined as MIC.

[2] = system: Escherichia coli (14H114); experiment: MIC, agar plate dilution (Referential Example 1, Table 1); format: cell-based; conditions: HIA medium plate, 37° C., 18 hours, read-out: Minimum growth inhibitory concentration (MIC)
Procedure: (§3) The antibacterial activities of the cephalosporins of this invention were measured using the sodium salts of the compounds obtained in Synthesis Examples 1 and 2. The procedure and the results are shown in Referential Example 1.
(§4) Carbenicillin sodium salt (CB-PC) and cephazoline sodum salt (CEZ) were used as controls.
(§5) The antibacterial activities of the test compounds against various Gram-positive and Gram-negative bacteria were determined in a customary manner by the minimum growth inhibitory concentration method (MIC method).
(§6) The experimental procedure was as follows:
(§7) A commercially available heart infusion agar medium (to be abbreviated HIA medium) was used as an assay medium, and a commercially available trypto-soy bouillon medium (to be abbreviated TSB) was used as a medium for the growth of test bacterial strains.
(§8) The test compound was diluted with the melted HIA medium to 100 μg/ml as a maximum concentration, and then serially diluted double. The dilutions were poured into sterilized Petri dishes respectively and allowed to cool and solidify to prepare plates containing the test compound.
(§9) The test bacterial strain was cultivated at 37° C. for 18 to 24 hours in the TSB medium. The culture broth was diluted to 50 to 500 times with a freshly prepared TSB culture medium, and one platinum loopful of the dilution was inoculated in each of the plates containing the test compound.

Proteus vulgaris (OX-19) = experiment: as above; format: cell-based; conditions: read-out: Minimum growth inhibitory concentration (MIC)
Procedure: as §3, §4, §5, §6, §7, §8, §9

Proteus morganii (C-39) = experiment: as above; format: cell-based; conditions: Morganella morganii; HIA medium plate, 37° C., 18 hours; read-out: Minimum growth inhibitory concentration (MIC)
Procedure: as §3, §4, §5, §6, §7, §8, §9

Shigella flexneri (K-A) = experiment: as above; format: cell-based; conditions: HIA medium plate, 37° C., 18 hours, read-out: Minimum growth inhibitory concentration (MIC)
Procedure: as §3, §4, §5, §6, §7, §8, §9

[3] = system: Pseudomonas maltophilia (F-6257); experiment: as above; format: cell-based; conditions: Stenotrophomonas maltophilia; HIA medium plate, 37° C., 18 hours; read-out: Minimum growth inhibitory concentration (MIC)
Procedure: as §3, §4, §5, §6, §7, §8, §9

[4] = system: Pseudomonas aeruginosa (718); experiment: as above; format: cell-based; conditions: HIA medium plate, 37° C., 18 hours, read-out: Minimum growth inhibitory concentration (MIC)
Procedure: as §3, §4, §5, §6, §7, §8, §9

[5] = system: Pseudomonas aeruginosa (IFO-3901); experiment: as above; format: cell-based; conditions: IFO3901, HIA medium plate, 37° C., 18 hours, read-out: Minimum growth inhibitory concentration (MIC)
Procedure: as §3, §4, §5, §6, §7, §8, §9

[6] = system: Pseudomonas aeruginosa (S-1); experiment: as above; format: cell-based; conditions: HIA medium plate, 37° C., 18 hours, read-out: Minimum growth inhibitory concentration (MIC)
Procedure: as §3, §4, §5, §6, §7, §8, §9

[7] = system: Staphylococcus aureus (FDA 209P); experiment: as above; format: cell-based; conditions: FDA209P, read-out: Minimum growth inhibitory concentration (MIC)
Procedure: as §3, §4, §5, §6, §7, §8, §9

Proteus rettgeri (T-2) = experiment: as above; format: cell-based; conditions: Providencia rettgeri; HIA medium plate, 37° C., 18 hours; read-out: Minimum growth inhibitory concentration (MIC)
Procedure: as §3, §4, §5, §6, §7, §8, §9

Escherichia coli (K-12) = experiment: as above; format: cell-based; conditions: HIA medium plate, 37° C., 18 hours, read-out: Minimum growth inhibitory concentration (MIC)
Procedure: as §3, §4, §5, §6, §7, §8, §9

[8] = system: Klebsiella pneumoniae (Horino); experiment: as above; format: cell-based; conditions: HIA medium plate, 37° C., 18 hours, read-out: Minimum growth inhibitory concentration (MIC)
Procedure: as §3, §4, §5, §6, §7, §8, §9

[9] = system: Staphylococcus aureus (Y-8); experiment: as above; format: cell-based; conditions: HIA medium plate, 37° C., 18 hours, read-out: Minimum growth inhibitory concentration (MIC)
Procedure: as §3, §4, §5, §6, §7, §8, §9

[10] = system: Klebsiella pneumonia (F-5089); experiment: as above; format: cell-based; conditions: Klebsiella pneumoniae; HIA medium plate, 37° C., 18 hours; read-out: Minimum growth inhibitory concentration (MIC)
Procedure: as §3, §4, §5, §6, §7, §8, §9

[11] = system: Bacillus cereus (IAM 1792); experiment: as above; format: cell-based; conditions: IAM1792, HIA medium plate, 37° C., 18 hours, read-out: Minimum growth inhibitory concentration (MIC)
Procedure: as §3, §4, §5, §6, §7, §8, §9

[12] = system: Pseudomonas aeruginosa (395); experiment: as above; format: cell-based; conditions: HIA medium plate, 37° C., 18 hours, read-out: Minimum growth inhibitory concentration (MIC)
Procedure: as §3, §4, §5, §6, §7, §8, §9

[13] = system: Klebsiella pneumoniae (B-172); experiment: as above; format: cell-based; conditions: HIA medium plate, 37° C., 18 hours, read-out: Minimum growth inhibitory concentration (MIC)
Procedure: as §3, §4, §5, §6, §7, §8, §9

Escherichia coli (NIHJ) = experiment: as above; format: cell-based; conditions: HIA medium plate, 37° C., 18 hours, read-out: Minimum growth inhibitory concentration (MIC)
Procedure: as §3, §4, §5, §6, §7, §8, §9

[14] = system: Citrobacter freundii (F-34); experiment: as above; format: cell-based; conditions: HIA medium plate, 37° C., 18 hours, read-out: Minimum growth inhibitory concentration (MIC)
Procedure: as §3, §4, §5, §6, §7, §8, §9

[15] = system: Enterobacter aerogenes (IFO 3320); experiment: as above; format: cell-based; conditions: Klebsiella aerogenes, read-out: Minimum growth inhibitory concentration (MIC)
Procedure: as §3, §4, §5, §6, §7, §8, §9

[16] = system: Enterobacter cloacae (D-49); experiment: as above; format: cell-based; conditions: HIA medium plate, 37° C., 18 hours, read-out: Minimum growth inhibitory concentration (MIC)
Procedure: as §3, §4, §5, §6, §7, §8, §9

[17] = system: Serratia marcescens (S-33); experiment: as above; format: cell-based; conditions: HIA medium plate, 37° C., 18 hours, read-out: Minimum growth inhibitory concentration (MIC)
Procedure: as §3, §4, §5, §6, §7, §8, §9

[18] = system: Pseudomonas aeruginosa (ATCC 10145); experiment: as above; format: cell-based; conditions: ATCC10145, HIA medium plate, 37° C., 18 hours, read-out: Minimum growth inhibitory concentration (MIC)
Procedure: as §3, §4, §5, §6, §7, §8, §9

[19] = system: Pseudomonas aeruginosa (NCTC 7244); experiment: as above; format: cell-based; conditions: NCTC7244, HIA medium plate, 37° C., 18 hours, read-out: Minimum growth inhibitory concentration (MIC)
Procedure: as §3, §4, §5, §6, §7, §8, §9

Escherichia coli (26RO3) = experiment: as above; format: cell-based; conditions: HIA medium plate, 37° C., 18 hours, read-out: Minimum growth inhibitory concentration (MIC)
Procedure: as §3, §4, §5, §6, §7, §8, §9

[20] = system: Pseudomonas aeruginosa (F1629); experiment: as above; format: cell-based; conditions: HIA medium plate, 37° C., 18 hours, read-out: Minimum growth inhibitory concentration (MIC)
Procedure: as §3, §4, §5, §6, §7, §8, §9

[21] = system: Salmonella enteritidis (KB-21); experiment: as above; format: cell-based; conditions: Salmonella enterica, 18 h, read-out: Minimum growth inhibitory concentration (MIC)
Procedure: as §3, §4, §5, §6, §7, §8, §9

[22] = system: Streptococcus faecalis (Hoshi); experiment: as above; format: cell-based; conditions: Enterococcus faecalis; HIA medium plate, 37° C., 18 hours; read-out: Minimum growth inhibitory concentration (MIC)
Procedure: as §3, §4, §5, §6, §7, §8, §9

[23] = system: Klebsiella pneumoniae (ATCC 10031); experiment: as above; format: cell-based; conditions: read-out: Minimum growth inhibitory concentration (MIC)
Procedure: as §3, §4, §5, §6, §7, §8, §9

[24] = system: Pseudomonas aeruginosa (NCTC 7244); experiment: Minimum bactericidal concentration (Referential Example 2, Table 2); format: cell-based; conditions: NCTC7244, 18 h, subculture on HIA medium
Procedure: as §1, §2
The growth of the bacterial strain was evaluated.

Pseudomonas aeruginosa = conditions: background art, in words; cited from earlier work
[25] = system: Gram-positive or Gram-negative bacteria; conditions: background art, in words; cited from earlier work
[26] = HIA medium plate, 37° C., 18 hours

Structure (SMILES) | MIC ([1]; 10^5 cells/ml inoculated) | MIC ([1]; 10^6 cells/ml inoculated) | MIC ([1]; 10^7 cells/ml inoculated) | MIC [2] | MIC (Proteus morganii (C-39)) | MIC (Shigella flexneri (K-A)) | MIC [3] | MIC [4] | MIC [5] | MIC [6] | MIC (Proteus rettgeri (T-2)) | MIC (Escherichia coli (K-12)) | MIC [8] | MIC [9] | MIC [10] | MIC [11] | MIC [12] | MIC [13] | MIC (Escherichia coli (NIHJ)) | MIC [14] | further results
Cc1nnc(SCC2=C(C(=O)O)N3C(=O)[C@@H](NC(=O)Cn4cnnn4)[C@H]3SC2)s1 [CEZ, sodium 7-[1-(1H)-tetrazoylacetamido]-3-[2-(5-methyl-1,3,4thiadiazoyl)-thiomethyl]-Δ^3-cephem-4-carboxylate] | > 200 µg/mL | > 200 µg/mL | > 200 µg/mL | 6.25 µg/mL | > 100 µg/mL | 1.56 µg/mL | > 100 µg/mL | > 100 µg/mL | > 100 µg/mL | > 100 µg/mL | 12.5 µg/mL | 3.13 µg/mL | 3.13 µg/mL | 0.78 µg/mL | 3.13 µg/mL | 100 µg/mL | > 100 µg/mL | 3.13 µg/mL | 3.13 µg/mL | 50 µg/mL | MIC (Proteus vulgaris (OX-19); 18 h): 1.56 µg/mL; MIC [7, 26]: 0.2 µg/mL; MIC ([15]; IFO3320, HIA medium plate, 37° C., 18 hours): 3.13 µg/mL; MIC [16]: > 100 µg/mL; MIC [17]: > 100 µg/mL; MIC [18]: > 100 µg/mL; MIC [19]: > 100 µg/mL; MIC (Escherichia coli (26RO3)): 50 µg/mL; MIC [20]: > 100 µg/mL; MIC [21]: 1.56 µg/mL; MIC [22]: 25 µg/mL; MIC ([23]; ATCC10031, 18 h): 1.56 µg/mL; MBC ([24]; 10^5 cells/ml inoculated): > 200 µg/mL; MBC ([24]; 10^6 cells/ml inoculated): > 200 µg/mL; MBC ([24]; 10^7 cells/ml inoculated): > 200 µg/mL; effectiveness for infections caused by Pseudomonas aeruginosa (Pseudomonas aeruginosa): ineffective for infections caused by Pseudomonas aeruginosa; effectiveness for infections caused by Gram-positive or Gram-negative bacteria [25]: effective as therapeutic agents for infections caused by Gram-positive or Gram-negative bacteria
CC1(C)S[C@@H]2[C@H](NC(=O)C(C(=O)O)c3ccccc3)C(=O)N2[C@H]1C(=O)O (stereo partly drawn) [CB-PC, disodium-α-carboxybenzyl penicillin] | 50 µg/mL | 100 µg/mL | 200 µg/mL | > 100 µg/mL | 6.25 µg/mL | 1.56 µg/mL | 25 µg/mL | > 100 µg/mL | 100 µg/mL | 25 µg/mL | 3.13 µg/mL | 6.25 µg/mL | 100 µg/mL | 12.5 µg/mL | 50 µg/mL | 100 µg/mL | 25 µg/mL | 25 µg/mL | 6.25 µg/mL | 3.13 µg/mL | MIC (Proteus vulgaris (OX-19); [26]): 6.25 µg/mL; MIC ([7]; 18 h): 1.56 µg/mL; MIC ([15]; IFO3320, 18 h): 1.56 µg/mL; MIC [16]: > 100 µg/mL; MIC [17]: 6.25 µg/mL; MIC [18]: > 100 µg/mL; MIC [19]: 100 µg/mL; MIC (Escherichia coli (26RO3)): 3.13 µg/mL; MIC [20]: > 100 µg/mL; MIC [21]: 1.56 µg/mL; MIC [22]: 50 µg/mL; MIC ([23]; ATCC10031, HIA medium plate, 37° C., 18 hours): > 100 µg/mL; MBC ([24]; 10^5 cells/ml inoculated): 100 µg/mL; MBC ([24]; 10^6 cells/ml inoculated): 100 µg/mL; MBC ([24]; 10^7 cells/ml inoculated): > 200 µg/mL; activity on Pseudomonas aeruginosa (Pseudomonas aeruginosa): low activity on Pseudomonas aeruginosa; effectiveness for infections caused by Pseudomonas aeruginosa (Pseudomonas aeruginosa): ineffective for Pseudomonas aeruginosa-induced infections of difficultly curable nature
